This passage reports IC50 results from patent publication US7605175B2, “Inhibitors of cyclin-dependent kinases, compositions and uses related thereto” (GPC Biotech AG, priority 2001, dated 2009).

One assay concerns the target T1, Cdk4/cyclin D1 (Homo sapiens, UniProt P11802).
T1 construct: made in house; host or cells: Sf9 insect cells
The assay can be described thus: Biochemical kinase assay Cdk4/cyclin D1. Conditions: Table 6. A digest of the protocol: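 Sf9-expressed Cdk/cyclin heterodimers phosphorylate GST-Rb (residues 379–928, 40 μg) with 50 μM ATP plus [γ-33P]ATP, pH 7.5, 10% DMSO, 15 min at 30 °C. Compounds 1 nM–10 μM. 33P captured on glutathione-sepharose and scintillation-counted; activity relative to DMSO control after EDTA-background subtraction.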

A further assay deals with HCT-116 cells. In words: Calcein AM viability assay, HCT-116. The format is cell-based. Conditions: Homo sapiens, HCT-116, plus 1 mg/ml alpha acidic glycoprotein and 45 mg/ml human serum albumin; read-out: HCT-116 IC50 Protein adjusted. Summed up: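 Cells plated (1,000 HCT-116 in RPMI-1640/10% FCS; 4,000 IMR90 in MEM-alpha/10% FCS), adhered overnight, then given 7 doses of compound at 0-250 nM for 72 h at 37 °C. Viability read by Calcein AM fluorescence (ex 485, em 530) after 75 min; IC50 derived.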

Assay [1] addresses protein kinase C (mixed isozymes). In words: Protein kinase C TCA precipitation assay. Conditions: Table 5; read-out: PKC IC50. It is filed as biochemical, rat. The procedure:
Enzymes: Cdc2/cyclin B was obtained from commercial sources. Cdk2/his-cyclin Eshort was expressed in Sf9 cells. Cdk2/cyclin A, cdk4/cyclin D1, and cdk6/cyclin D2 were expressed in Sf9 cells. Protein kinase A (catalytic subunit, from bovine heart) and protein kinase C (mixed isozymes from rat brain) were obtained from commercial sources.
Protein kinase C and protein kinase A were assayed using a TCA precipitation assay with Histone H1 as a substrate. For protein kinase A, the final assay contained 50 mM Tris, 10 mM MgCl2, 1 mM dithiothreitol, pH 7.5, 12 μM adenosine triphosphate, 10% (v/v) dimethylsulfoxide (from compounds), 20 μg Histone H1, 2 μCi [γ-^32P] adenosine triphosphate, 0.2 U protein kinase A in a 100 μL assay. A protein kinase C assay contained 50 mM Tris, 10 mM MgCl2, 1 mM dithiothreitol, 0.8 mM CaCl2, pH 7.5, 5 μM adenosine triphosphate, 10% (v/v) dimethylsulfoxide (from compounds), 20 μg Histone H1, 2 μCi [γ-^32P] adenosine triphosphate, 0.01 U protein kinase C in a 50 μL assay. The assays were started by the addition of enzyme, allowed to react for 10 min at 30° C., and stopped by adding 0.4 volumes of 237 mM disodium ethylenediamine tetraacetate, 105 mM adenosine triphosphate, pH 8.0. […] The filters were washed ten times with 25% (w/v) trichloroacetic acid, and the amount of incorporated [^32P]phosphate was determined by adding 100 μl Microscint and scintillation counting.

T1 sequence (P11802 whole entry, species assumed): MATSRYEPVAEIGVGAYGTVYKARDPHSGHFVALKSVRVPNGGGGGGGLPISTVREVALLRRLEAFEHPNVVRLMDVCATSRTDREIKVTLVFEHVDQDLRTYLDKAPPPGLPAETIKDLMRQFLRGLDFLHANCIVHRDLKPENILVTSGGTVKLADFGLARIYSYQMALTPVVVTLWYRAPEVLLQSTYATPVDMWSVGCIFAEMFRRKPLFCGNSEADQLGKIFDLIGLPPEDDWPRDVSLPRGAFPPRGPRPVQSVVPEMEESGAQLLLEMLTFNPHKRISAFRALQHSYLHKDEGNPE
T1 sequence (P24385 whole entry partner, species assumed): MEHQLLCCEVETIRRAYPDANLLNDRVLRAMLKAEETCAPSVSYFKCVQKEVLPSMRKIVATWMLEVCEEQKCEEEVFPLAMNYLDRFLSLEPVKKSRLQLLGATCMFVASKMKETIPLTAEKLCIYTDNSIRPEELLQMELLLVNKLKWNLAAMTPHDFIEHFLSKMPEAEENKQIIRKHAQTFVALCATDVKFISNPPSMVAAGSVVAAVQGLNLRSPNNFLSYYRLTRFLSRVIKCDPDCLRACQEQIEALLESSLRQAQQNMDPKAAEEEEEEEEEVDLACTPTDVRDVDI

In general, IC50 refers to the concentration that gives 50% inhibition. On Cdk4/cyclin D1, `CC(C)N1CCN(C(=O)COc2ccc(-c3[nH]nc4c3C(=O)c3c(NC(=O)NN5CCOCC5)cccc3-4)cc2)CC1.Cl` [Compound A37] yielded an IC50 of less than 100 nM. As to `CC(C)c1nn(-c2c(Cl)cccc2Cl)c2nc(Cc3ccc(O)c(CN4CCN(C(C)C)CC4)c3)[nH]c(=O)c12` [Compound C], the IC50 with HCT-116 cells is less than 1000 nM; in assay [1], more than 10000 nM.
